{"source": "patent US8802597B2", "about": "“Herbicidal pyrimidines” (E I du Pont de Nemours and Company, priority 2003, dated 2014)", "test_in_all_cases": "Test J mixtures of compound 58 with azimsulfuron, flooded paddy", "assay_type_in_all_cases": "in vivo", "conditions_in_all_cases": "21 days, scale 0-100", "key": {"[1]": {"tested_on": "transplanted rice seedlings (ORYSP; Oryza sativa cv. ‘Japonica-M202’)", "source_text": "(§1) This test evaluated the effect of mixtures of compound 58 with azimsulfuron on several plant species. Three plastic pots (ca. 16-cm diameter) per rate were partially filled with sterilized Tama silt loam soil comprising a 35:50:15 ratio of sand, silt and clay and 2.6% organic matter. Separate plantings for each of the three pots were as follows. Seeds from the U.S. of ducksalad (HETLI; Heteranthera limosa), smallflower umbrella sedge (CYPDI; Cyperus difformis) and purple redstem (AMMCO; Ammannia coccinea), were planted into one 16-cm pot for each rate. Seeds from the U.S. of bearded sprangletop (LEFUF; Leptochloa fusca ssp. fascicularis), one stand of 9 or 10 water-seeded rice seedlings (ORYSW; Oryza sativa cv. ‘Japonica-M202’), and one stand of 6 transplanted rice seedlings (ORYSP; Oryza sativa cv. ‘Japonica-M202’) were planted into one 16-cm pot for each rate. Seeds from the U.S. of barnyardgrass (ECHCG; Echinochloa crus-galli), late watergrass (ECOR2; Echinochloa oryzicola), early watergrass (ECHOR; Echinochloa oryzoides) and junglerice (ECHCO; Echinochloa colona) were planted into one 16-cm pot for each rate. Plantings were sequential so that crop and weed species were at the 2.0 to 2.5-leaf stage at time of treatment.\n(§2) Potted plants were grown in a greenhouse with day/night temperature settings of 29.5/26.7° C., and supplemental balanced lighting was provided to maintain a 16-hour photoperiod. Test pots were maintained in the greenhouse until test completion.\n(§3) At time of treatment, test pots were flooded to 3 cm above the soil surface and then treated by application directly to the paddy water of test compounds formulated in a non-phytotoxic solvent mixture which included a surfactant. The pots were maintained at the 3-cm water depth for the duration of the test. Treatments consisted of compound 58 and azimsulfuron alone and in combination. Effects of treatments on rice and weeds were visually evaluated by comparison to untreated controls after 21 days. Plant response ratings were calculated as the means of the three replicates and are summarized in Table J. The ratings are based on a scale of 0 to 100 where 0 is no effect and 100 is complete control. A dash (-) response means no test result. Colby's Equation was used to determine the herbicidal effects expected from the mixtures."}, "[2]": {"tested_on": "smallflower umbrella sedge (CYPDI; Cyperus difformis)", "source_text": "as §1, §2, §3"}, "[3]": {"tested_on": "purple redstem (AMMCO; Ammannia coccinea)", "source_text": "as §1, §2, §3"}, "[4]": {"tested_on": "ducksalad (HETLI; Heteranthera limosa)", "source_text": "as §1, §2, §3"}, "[5]": {"tested_on": "bearded sprangletop (LEFUF; Leptochloa fusca ssp. fascicularis)", "source_text": "as §1, §2, §3"}, "[6]": {"tested_on": "late watergrass (ECOR2; Echinochloa oryzicola)", "source_text": "as §1, §2, §3"}, "[7]": {"tested_on": "early watergrass (ECHOR; Echinochloa oryzoides)", "source_text": "as §1, §2, §3"}, "[8]": {"tested_on": "barnyardgrass (ECHCG; Echinochloa crus-galli)", "source_text": "as §1, §2, §3"}, "[9]": {"tested_on": "water-seeded rice seedlings (ORYSW; Oryza sativa cv. ‘Japonica-M202’)", "source_text": "as §1, §2, §3"}}}
{"smiles": "COC(=O)c1nc(-c2ccc(Cl)cc2)nc(N)c1Cl", "note": "[Compound 58, methyl 6-amino-5-chloro-2-(4-chlorophenyl)-4-pyrimidinecarboxylate]", "values": [{"measurement": "ORYSP Obsd.", "setting": "[1]; Cmpd 58 16 g a.i./ha alone", "value": 0}, {"measurement": "ORYSP Obsd.", "setting": "[1]; Cmpd 58 32 g a.i./ha alone", "value": 0}, {"measurement": "ORYSP Obsd.", "setting": "[1]; Cmpd 58 64 g a.i./ha alone", "value": 0}, {"measurement": "CYPDI Obsd.", "setting": "[2]; Cmpd 58 16 g a.i./ha alone", "value": 100}, {"measurement": "CYPDI Obsd.", "setting": "[2]; Cmpd 58 32 g a.i./ha alone", "value": 100}, {"measurement": "CYPDI Obsd.", "setting": "[2]; Cmpd 58 64 g a.i./ha alone", "value": 100}, {"measurement": "AMMCO Obsd.", "setting": "[3]; Cmpd 58 16 g a.i./ha alone", "value": 0}, {"measurement": "AMMCO Obsd.", "setting": "[3]; Cmpd 58 32 g a.i./ha alone", "value": 30}, {"measurement": "AMMCO Obsd.", "setting": "[3]; Cmpd 58 64 g a.i./ha alone", "value": 90}, {"measurement": "HETLI Obsd.", "setting": "[4]; Cmpd 58 16 g a.i./ha alone", "value": 100}, {"measurement": "HETLI Obsd.", "setting": "[4]; Cmpd 58 32 g a.i./ha alone", "value": 100}, {"measurement": "HETLI Obsd.", "setting": "[4]; Cmpd 58 64 g a.i./ha alone", "value": 100}, {"measurement": "LEFUF Obsd.", "setting": "[5]; Compound 58 16 g a.i./ha alone", "value": 0}, {"measurement": "LEFUF Obsd.", "setting": "[5]; Compound 58 32 g a.i./ha alone", "value": 0}, {"measurement": "LEFUF Obsd.", "setting": "[5]; Compound 58 64 g a.i./ha alone", "value": 20}, {"measurement": "ECOR2 Obsd.", "setting": "[6]; Compound 58 16 g a.i./ha alone", "value": 0}, {"measurement": "ECOR2 Obsd.", "setting": "[6]; Compound 58 32 g a.i./ha alone", "value": 0}, {"measurement": "ECOR2 Obsd.", "setting": "[6]; Compound 58 64 g a.i./ha alone", "value": 0}, {"measurement": "ECHOR Obsd.", "setting": "[7]; Compound 58 16 g a.i./ha alone", "value": 0}, {"measurement": "ECHOR Obsd.", "setting": "[7]; Compound 58 32 g a.i./ha alone", "value": 0}, {"measurement": "ECHOR Obsd.", "setting": "[7]; Compound 58 64 g a.i./ha alone", "value": 0}, {"measurement": "ECHCG Obsd.", "setting": "[8]; Compound 58 16 g a.i./ha alone", "value": 0}, {"measurement": "ECHCG Obsd.", "setting": "[8]; Compound 58 32 g a.i./ha alone", "value": 0}, {"measurement": "ECHCG Obsd.", "setting": "[8]; Compound 58 64 g a.i./ha alone", "value": 0}, {"measurement": "ORYSW Obsd.", "setting": "[9]; Cmpd 58 16 g a.i./ha alone", "value": 10}, {"measurement": "ORYSW Obsd.", "setting": "[9]; Cmpd 58 32 g a.i./ha alone", "value": 10}, {"measurement": "ORYSW Obsd.", "setting": "[9]; Cmpd 58 64 g a.i./ha alone", "value": 20}]}
